Assay results: patent US12077503B2, “Substituted cyclic amides and their use as herbicides” (FMC CORPORATION, priority 2015, dated 2024)

Columns and labels:
Format in all cases: in vivo
[1] = system: ryegrass, Italian (Italian ryegrass, Lolium multiflorum); experiment: Test A postemergence; conditions: postemergence; for Plant response rating, Ryegrass, Italian: 0 to 100 scale, 0 no effect, 100 complete control
Text: (§1) Seeds of plant species selected from barnyardgrass (Echinochloa crus-galli), Kochia (Kochia scoparia), ragweed (common ragweed, Ambrosia elatior), ryegrass, Italian (Italian ryegrass, Lolium multiflorum), crabgrass, large (Digitaria sanguinalis), giant foxtail (Setaria faberii), green foxtail (Setaria viridis), morningglory (Ipomoea spp.), pigweed (Amaranthus retroflexus), velvetleaf (Abutilon theophrasti), wheat (Triticum aestivum), and corn (Zea mays) were planted into a blend of loam soil and sand and treated preemergence with a directed soil spray using test chemicals formulated in anon-phytotoxic solvent mixture which included a surfactant.
(§2) At the same time, plants selected from these crop and weed species and also blackgrass (Alopecurus myosuroides), and Galium (catchweed bedstraw, Galium aparine) were planted in pots containing the same blend of loam soil and sand and treated with postemergence applications of test chemicals formulated in the same manner. Plants ranged in height from 2 to 10 cm and were in the one- to two-leaf stage for the postemergence treatment. Treated plants and untreated controls were maintained in a greenhouse for approximately 10 d, after which time all treated plants were compared to untreated controls and visually evaluated for injury. Plant response ratings, summarized in Table A, are based on a 0 to 100 scale where 0 is no effect and 100 is complete control. A dash (-) response means no test result.

[2] = system: Galium (catchweed bedstraw, Galium aparine); experiment: Test A postemergence; conditions: postemergence; for Plant response rating, Galium: 0 to 100 scale, 0 no effect, 100 complete control
Text: as §1, §2

[3] = system: barnyardgrass (Echinochloa crus-galli); experiment: Test A postemergence; conditions: postemergence; for Plant response rating, Barnyardgrass: 0 to 100 scale, 0 no effect, 100 complete control
Text: as §1, §2

[4] = system: wheat (Triticum aestivum); experiment: Test A postemergence; conditions: postemergence; for Plant response rating, Wheat: 0 to 100 scale, 0 no effect, 100 complete control
Text: as §1, §2

[5] = system: pigweed (Amaranthus retroflexus); experiment: Test A postemergence; conditions: postemergence; for Plant response rating, Pigweed: 0 to 100 scale, 0 no effect, 100 complete control
Text: as §1, §2

Kochia (Kochia scoparia) [6] = experiment: Test A postemergence; conditions: postemergence; for Plant response rating, Kochia: 0 to 100 scale, 0 no effect, 100 complete control
Text: as §1, §2

[7] = system: blackgrass (Alopecurus myosuroides); experiment: Test A postemergence; conditions: postemergence; for Plant response rating, Blackgrass: 0 to 100 scale, 0 no effect, 100 complete control
Text: as §1, §2

[8] = system: ragweed (common ragweed, Ambrosia elatior); experiment: Test A postemergence; conditions: postemergence; for Plant response rating, Ragweed: 0 to 100 scale, 0 no effect, 100 complete control
Text: as §1, §2

[9] = system: giant foxtail (Setaria faberii); experiment: Test A postemergence; conditions: postemergence; for Plant response rating, Foxtail, Giant: 0 to 100 scale, 0 no effect, 100 complete control
Text: as §1, §2

corn (Zea mays) = experiment: Test A postemergence; conditions: postemergence; for Plant response rating, Corn: 0 to 100 scale, 0 no effect, 100 complete control
Text: as §1, §2

[10] = system: ryegrass, Italian (Italian ryegrass, Lolium multiflorum); experiment: Test A preemergence
Text: as §1, §2

[11] = system: barnyardgrass (Echinochloa crus-galli); experiment: Test A preemergence
Text: as §1, §2

[12] = system: pigweed (Amaranthus retroflexus); experiment: Test A preemergence
Text: as §1, §2

Kochia (Kochia scoparia) [13] = experiment: Test A preemergence
Text: as §1, §2

[14] = system: ragweed (common ragweed, Ambrosia elatior); experiment: Test A preemergence
Text: as §1, §2

[15] = system: giant foxtail (Setaria faberii); experiment: Test A preemergence
Text: as §1, §2

[16] = 125 g ai/ha, visual injury rating on 0 to 100 scale (0 no effect, 100 complete control), approx. 10 d
[17] = 125 g ai/ha, preemergence, 0 to 100 scale (0 no effect, 100 complete control)
[18] = Preemergence, 500 g ai/ha, visual injury approx. 10 d
[19] = Preemergence, 1000 g ai/ha, 0 is no effect, 100 is complete control

COC(=O)c1ccccc1NC(=O)C1C(=O)NCC1c1ccc(F)c(F)c1 (stereo not drawn) [Compound 417]
0: Ryegrass, Italian plant response rating [1, 16] | Plant response rating, Ryegrass, Italian ([1]; 500 g ai/ha) | Galium plant response rating [2, 16] | Plant response rating, Galium ([2]; 500 g ai/ha) | Barnyardgrass plant response rating [3, 16] | Plant response rating, Barnyardgrass ([3]; 500 g ai/ha) | Wheat plant response rating [4, 16] | Plant response rating, Wheat ([4]; 500 g ai/ha) | Pigweed plant response rating [5, 16] | Plant response rating, Pigweed ([5]; 500 g ai/ha) | Kochia plant response rating (Kochia (Kochia scoparia) [6]; [16]) | Plant response rating, Kochia (Kochia (Kochia scoparia) [6]; 500 g ai/ha) | Blackgrass plant response rating [7, 16] | Plant response rating, Blackgrass ([7]; 500 g ai/ha) | Ragweed plant response rating [8, 16] | Plant response rating, Ragweed ([8]; 500 g ai/ha) | Foxtail, Giant plant response rating [9, 16] | Plant response rating, Foxtail, Giant ([9]; 500 g ai/ha) | Corn plant response rating (corn (Zea mays); [16]) | Plant response rating, Corn (corn (Zea mays); 500 g ai/ha) | Plant response rating, Ryegrass, Italian [10, 17] | Ryegrass, Italian plant response rating (0 to 100 scale, 0 is no effect, 100 is complete control) [10, 18] | Plant response rating, Barnyardgrass [11, 17] | Barnyardgrass plant response rating (0 to 100 scale, 0 is no effect, 100 is complete control) [11, 18] | Plant response rating, Pigweed [12, 17] | Pigweed plant response rating (0 to 100 scale, 0 is no effect, 100 is complete control) [12, 18] | Plant response rating, Kochia (Kochia (Kochia scoparia) [13]; [17]) | Kochia plant response rating (0 to 100 scale, 0 is no effect, 100 is complete control) (Kochia (Kochia scoparia) [13]; [18]) | Plant response rating, Ragweed [14, 17] | Ragweed plant response rating (0 to 100 scale, 0 is no effect, 100 is complete control) [14, 18] | Plant response rating, Foxtail, Giant [15, 17] | Foxtail, Giant plant response rating (0 to 100 scale, 0 is no effect, 100 is complete control) [15, 18]

O=C(Nc1cccc(F)c1F)C1C(=O)N(CC=CCl)CC1c1cc(F)cc(F)c1 (stereo not drawn) [Compound 512]
0: Plant response rating, Ryegrass, Italian ([1]; 1000 g ai/ha) | Plant response rating, Galium ([2]; 1000 g ai/ha) | Plant response rating, Wheat ([4]; 1000 g ai/ha) | Plant response rating, Pigweed ([5]; 1000 g ai/ha) | Plant response rating, Kochia (Kochia (Kochia scoparia) [6]; 1000 g ai/ha) | Plant response rating, Blackgrass ([7]; 1000 g ai/ha) | Plant response rating, Ragweed ([8]; 1000 g ai/ha) | Plant response rating, Corn (corn (Zea mays); 1000 g ai/ha) | Ryegrass, Italian plant response rating (0 to 100 scale) [10, 19] | Pigweed plant response rating (0 to 100 scale) [12, 19] | Kochia plant response rating (0 to 100 scale) (Kochia (Kochia scoparia) [13]; [19]) | Ragweed plant response rating (0 to 100 scale) [14, 19]
90: Plant response rating, Foxtail, Giant ([9]; 1000 g ai/ha) | Foxtail, Giant plant response rating (0 to 100 scale) [15, 19]
80: Plant response rating, Barnyardgrass ([3]; 1000 g ai/ha) | Barnyardgrass plant response rating (0 to 100 scale) [11, 19]
